Patent US7897580B2, “β glycolipids as immuno-modulators” (priority 2005, dated 2011)

Experiments:
[1] = test system: human Hep3B HCC; assay: Hep3B hepatocellular carcinoma transplanted into athymic Balb/c mice (Example 2); assay type: in vivo; conditions: for hepatic/splenic NKT lymphocyte ratio / reduction of tumor volume (% change from maximal volume) / tumors developed (% of animals) / maximal tumor volume: daily i.p. 1.5 μg for 25 days; for hepatic/splenic NKT lymphocyte ratio: PBS control 0.38, p<0.05, FIG. 7; for reduction of tumor volume (% change from maximal volume): controls 10% increase, p<0.05, FIG. 6; for tumors developed (% of animals): controls 100%, FIG. 4; for maximal tumor volume: controls 101.14 mm^3, p<0.05, FIG. 5; for STAT4 expression in splenocytes / STAT6 expression in splenocytes: vs. controls, FIG. 9
Description: Splenocytes were isolated and red blood cells removed as previously described [Vicari, A. P., et al., Immunology Today 17(2):71 (1996)]. Intrahepatic lymphocytes were isolated from all groups of mice at the end of the study, as previously described, with some modifications [Vicari et al., (1996) ibid.; Bleicher, P. A., et al., Science 250:679-682 (1990)]. […] The connective tissue and the gall bladder were removed, and livers were place in a 10-ml dish in cold sterile PBS. Livers and spleens were crushed through a stainless mesh (size 60, Sigma Chemical Co., St. Louis Mo.). Cell suspension was placed in a 50 ml tube for 3 minutes and washed twice in cold PBS (1,250×rpm for 10 minutes), and debris was removed. Cells were re-suspended in PBS, cell suspension was placed through a nylon mesh presoaked in PBS, and unbound cells were collected. Cells were washed twice in 45 ml PBS (1,250×rpm in room temperature). For liver and spleen lymphocyte isolation 20 ml of histopague 1077 (Sigma Diagnostics, St. Louis, Mo.) were slowly placed underneath the cells suspended in 7 ml of PBS, in a 50-ml tube. The tube was centrifuged at 1,640 rpm for 15 minutes at room temperature. Cells at the interface were collected, diluted in a 50-ml tube, and washed twice with ice-cold PBS (1,250 rpm for 10 minutes). Approximately 1×10^6 cells/mouse liver were recovered. The viability by trypan blue staining was more than 95%. Both splenocytes and liver-associated lymphocytes were isolated from all animals in all experimental groups.
Immediately following lymphocyte isolation, triplicates of 2-5×10^4 cells/500 μl PBS were put into Falcon 2052 tubes incubated with 4 ml of 1% BSA for 10 minutes, and centrifuged at 1400 rpm for 5 minutes. Analysis of lymphocyte subpopulations was performed using anti-NK1.1, anti-CD3, anti-CD4 and anti CD-8 antibodies. Cells were washed twice in 1% BSA, and kept in 4° C. until reading. For the control group, only 5 μl of 1% BSA was added. Analytical cell sorting was performed on 1×10^4 cells from each group with a fluorescence-activated cell sorter (FACSTAR plus, Becton Dickinson). Only live cells were counted, and background fluorescence from non-antibody-treated lymphocytes was deducted from the levels obtained. Gates were set on forward- and side-scatters to exclude dead cells and red blood cells. The data were analyzed with Consort 30 two-color contour plot program (Becton Dickinson, Oxnard, Calif.), or the CELLQuest program.
Blood was drawn from mice in all groups and centrifuged at 14,000 rpm. Serum INFγ, IL2, IL4, IL10 and IL-12 levels were measured by “sandwich” ELISA using Genzyme Diagnostics kits (Genzyme Diagnostics, Mass.).
To determine the clinical and immunological consequences of administration of different β-glycolipids such as β-glucosylceramide (GluC), β-lactosyl-ceramide (LacC), and β-galactosyl-ceramide (GalC) and of ceramide on hepatocellular carcinoma (HCC), mice transplanted with human Hep3B HCC cells, were studied. Five groups of athymic Balb/c mice, consisting of 8 mice each, were sublethally irradiated and transplanted with human Hep3B HCC, followed by daily intraperitoneal injections of GluC, LacC, GalC, ceramide (1.5 μg in 100 μl PBS) or PBS (100μ) for 25 days. Animals were followed for tumor size and weight and for intrahepatic and intrasplenic lymphocyte subpopulations, serum cytokine levels and expression of STAT1, STAT4 and STAT6 in splenocytes.

[2] = test system: TNBS colitis; assay: TNBS-induced experimental colitis, single β-glycolipids (Example 1); assay type: in vivo, C57Bl mice; conditions: oral 15 μg daily, compared with controls
Experimental: (§1) 2,4,6-trinitrobenzene sulfonic acid (TNBS)—colitis was induced by intracolonic instillation of TNBS, 1 mg/mouse, dissolved in […] of 50% ethanol as described. [Collins, C., etal., Eur. J. Immunol. 26:3114-3118 (1996)].
(§2) Diarrhea was followed daily throughout the study.
(§3) Colitis assessment was performed 14 days following colitis induction using standard parameters [Madsen, K. L., et al., Gastroenterology 113:151-159 (1997); Trop, S., et al., Hepatology 27:746-755 (1999)].
Four macroscopic parameters were determined, namely: degree of colonic ulcerations; intestinal and peritoneal adhesions; wall thickness; and degree of mucosal edema. Each parameter was graded on a scale from 0 (completely normal) to 4 (most severe) by two experienced blinded examiners. […]
Immediately following lymphocyte isolation, triplicates of 2-5×10^4 cells/500 μl PBS were put into Falcon 2052 tubes incubated with 4 ml of 1% BSA for 10 minutes, and centrifuged at 1400 rpm for 5 minutes. […] Cells were washed twice in 1% BSA, and kept in 4° C. until reading. […] Analytical cell sorting was performed on 1×10^4 cells from each group with a fluorescence-activated cell sorter (FACSTAR plus, Becton Dickinson). Only live cells were counted, and background fluorescence from non-antibody-treated lymphocytes was deducted from the levels obtained. […]

[3] = test system: TNBS induced colitis; assay: TNBS-induced colitis, mixture of β-GluC and β-LacC vs β-LacC alone (Example 3); assay type: in vivo, mice; conditions: with TNBS; for Weight: share of mice, TNBS alone: Weight loss, listed as β-LC
Experimental: as §1, §2, §3
Four macroscopic parameters were determined, namely: degree of colonic ulcerations; intestinal and peritoneal adhesions; wall thickness; and degree of mucosal edema. Each parameter was graded on a scale from 0 (completely normal) to 4 (most severe) by two experienced blinded examiners.
For histological evaluation of inflammation, distal colonic tissue (last 10 cm) was removed and fixed in 10% formaldehyde. Five paraffin sections from each mouse were then stained with hematoxylin-eosin by using standard techniques. The degree of inflammation on microscopic cross sections of the colon was graded semiquantitatively from 0 to 4 [Madsen et al., (1997) ibid.; Trop et al., Hepatology 27:746-755 (1999)]. Grade 0: normal with no signs of inflammation; Grade 1: very low level of leukocyte infiltration; Grade 2: low level of leukocyte infiltration; and Grade 3: high level of infiltration with high vascular density, and bowel wall thickening; Grade 4: transmural infiltrates with loss of goblet cells, high vascular density, wall thickening, and disruption of normal bowel architecture. The grading was performed by two experienced blinded examiners.
To determine the possible immuno-modulation effect of a mixture of different β-glycolipids, the effect of a mixture of β-Glucocerebroside and β-Lactosyl-ceramide was tested using a murine model of colitis.
As summarized in Table 3, five groups of mice were studied, each consisting of 10 mice. Colitis was induced by intracolonic installation of trinitrobenzenesulfonic acid (TNBS) on day 1 and 5 in groups A, B and D. Group A mice were fed regular chow diet. […]

[4] = Mixture of β-GluC and β-LacC or β-LacC alone in mice not treated with TNBS, control groups (Example 3); assay type: in vivo; conditions: without TNBS
Experimental: As summarized in Table 3, five groups of mice were studied, each consisting of 10 mice. Colitis was induced by intracolonic installation of trinitrobenzenesulfonic acid (TNBS) on day 1 and 5 in groups A, B and D. Group A mice were fed regular chow diet. Group B mice received oral (PO) 15 μg daily of a mixture of β-GluC and β-LacC, group D received only β-LacC. Groups C and E mice were not treated with TNBS, but received oral (PO) 15 μg daily of a mixture of β-GluC and β-LacC or only β-LacC, respectively, and served as control groups.
Mice were followed for macroscopic and microscopic colitis scores, as well as for survival and functional status and weight.

| Substance | hepatic/splenic NKT lymphocyte ratio [1] | reduction of tumor volume (% change from maximal volume) [1] | tumors developed (% of animals) [1] | maximal tumor volume [1] | alleviation of colitis (microscopic colitis scores) ([2]; FIG. 1) | alleviation of colitis (microscopic colitis scores) ([2]; FIG. 1, listed as Lactosyl-ceramide) | STAT4 expression in splenocytes [1] | STAT6 expression in splenocytes [1] | Weight ([3]; share of mice with no weight change) | Weight ([3]; share of mice with weight increase) | Activity ([3]; TNBS alone: Lethargic) | Activity [4] | Weight ([4]; share of mice) |
| --- | --- | --- | --- | --- | --- | --- | --- | --- | --- | --- | --- | --- | --- |
| β-glucosylceramide | 6.13 | 43% | 87% | 71.4 mm^3 |  |  |  |  |  |  |  |  |  |
| β-lactosyl-ceramide [LacC] | 1.94 | 78% | 43% | 77.9 mm^3 | most marked | most potent | increased | increased | In 90% no change | In 10% increase | Normal | Normal | In 100% increase |
| ceramide | 0.85 | 81% | 50% | 64.4 mm^3 |  |  | increased | increased |  |  |  |  |  |
| β-galactosyl-ceramide [GalC] |  | 49% | 71% | 86.1 mm^3 |  |  | increased | increased |  |  |  |  |  |
